The record followed here is ChEMBL document CHEMBL1133889, “Discovery and SAR of org 24598-a selective glycine uptake inhibitor” (Bioorg Med Chem Lett, 2001).

Test [1] has as its target T1, Sodium- and chloride-dependent glycine transporter 1 (Homo sapiens, UniProt P48067).
T1 sequence (P48067 whole entry): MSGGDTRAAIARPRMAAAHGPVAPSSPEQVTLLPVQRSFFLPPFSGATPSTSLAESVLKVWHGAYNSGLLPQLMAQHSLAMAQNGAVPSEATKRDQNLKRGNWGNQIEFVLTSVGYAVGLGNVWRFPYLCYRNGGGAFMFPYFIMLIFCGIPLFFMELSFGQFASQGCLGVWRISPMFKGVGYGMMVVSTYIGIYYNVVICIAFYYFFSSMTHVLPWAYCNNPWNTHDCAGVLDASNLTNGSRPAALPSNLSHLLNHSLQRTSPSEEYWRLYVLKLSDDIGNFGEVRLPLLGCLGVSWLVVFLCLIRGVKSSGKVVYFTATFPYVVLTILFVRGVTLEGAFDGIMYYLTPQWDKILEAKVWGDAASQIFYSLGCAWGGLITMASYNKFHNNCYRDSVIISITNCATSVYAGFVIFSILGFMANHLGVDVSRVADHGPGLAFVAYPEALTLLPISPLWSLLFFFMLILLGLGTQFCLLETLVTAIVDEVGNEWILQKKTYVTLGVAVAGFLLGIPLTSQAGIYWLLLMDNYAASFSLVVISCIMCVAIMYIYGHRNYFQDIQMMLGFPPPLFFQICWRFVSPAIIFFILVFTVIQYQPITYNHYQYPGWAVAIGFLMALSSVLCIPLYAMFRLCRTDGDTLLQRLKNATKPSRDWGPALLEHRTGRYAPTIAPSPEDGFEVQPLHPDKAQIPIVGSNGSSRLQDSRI
Put plainly: Inhibition of [3H]glycine uptake using CHO cells transfected with GlyT-1b transporter. The format is cell-based.

In test [2] the target is T2, 5-hydroxytryptamine receptor 2C (Rattus norvegicus, UniProt P08909).
T2 sequence (P08909 whole entry): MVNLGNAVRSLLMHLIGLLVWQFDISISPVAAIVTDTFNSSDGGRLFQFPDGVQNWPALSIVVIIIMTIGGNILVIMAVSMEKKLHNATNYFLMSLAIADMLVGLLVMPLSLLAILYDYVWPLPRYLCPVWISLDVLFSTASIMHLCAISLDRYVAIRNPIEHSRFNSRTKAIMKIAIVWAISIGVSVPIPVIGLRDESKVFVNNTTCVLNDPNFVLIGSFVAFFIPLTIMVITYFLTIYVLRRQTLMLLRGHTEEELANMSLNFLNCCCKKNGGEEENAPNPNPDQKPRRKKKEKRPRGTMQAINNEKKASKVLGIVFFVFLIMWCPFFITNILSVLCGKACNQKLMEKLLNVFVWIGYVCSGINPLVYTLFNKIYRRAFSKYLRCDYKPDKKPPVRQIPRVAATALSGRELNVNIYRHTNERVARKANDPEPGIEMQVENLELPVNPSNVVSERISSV
Nature of the test: Binding affinity of compound towards serotonin 5-hydroxytryptamine 2C receptor was determined.

Test [3] has as its target T3, Alpha-1A adrenergic receptor (Homo sapiens, UniProt P35348).
T3 sequence (P35348 whole entry): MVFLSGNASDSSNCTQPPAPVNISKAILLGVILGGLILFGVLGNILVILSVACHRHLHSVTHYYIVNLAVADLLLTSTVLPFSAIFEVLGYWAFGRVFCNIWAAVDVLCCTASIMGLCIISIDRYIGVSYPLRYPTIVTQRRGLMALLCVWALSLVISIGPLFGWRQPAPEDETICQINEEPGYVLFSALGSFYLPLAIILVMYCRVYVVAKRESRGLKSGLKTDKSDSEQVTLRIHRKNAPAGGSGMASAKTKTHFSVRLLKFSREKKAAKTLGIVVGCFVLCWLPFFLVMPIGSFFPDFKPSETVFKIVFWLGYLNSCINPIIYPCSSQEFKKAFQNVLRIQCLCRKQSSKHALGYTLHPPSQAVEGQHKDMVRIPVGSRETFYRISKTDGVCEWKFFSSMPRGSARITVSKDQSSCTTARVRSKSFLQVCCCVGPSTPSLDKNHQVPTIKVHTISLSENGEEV
Nature of the test: Binding affinity of compound towards Binding affinity towards Alpha-1A adrenergic receptor was determined.

For test [4], the species on record is Rattus norvegicus. Nature of the test: Inhibition of [3H]- GABA uptake in rat brain. Format: functional, organism-based.
Test [5] has as its target T4, Alpha-2C adrenergic receptor (Homo sapiens, UniProt P18825).
T4 sequence (P18825 whole entry): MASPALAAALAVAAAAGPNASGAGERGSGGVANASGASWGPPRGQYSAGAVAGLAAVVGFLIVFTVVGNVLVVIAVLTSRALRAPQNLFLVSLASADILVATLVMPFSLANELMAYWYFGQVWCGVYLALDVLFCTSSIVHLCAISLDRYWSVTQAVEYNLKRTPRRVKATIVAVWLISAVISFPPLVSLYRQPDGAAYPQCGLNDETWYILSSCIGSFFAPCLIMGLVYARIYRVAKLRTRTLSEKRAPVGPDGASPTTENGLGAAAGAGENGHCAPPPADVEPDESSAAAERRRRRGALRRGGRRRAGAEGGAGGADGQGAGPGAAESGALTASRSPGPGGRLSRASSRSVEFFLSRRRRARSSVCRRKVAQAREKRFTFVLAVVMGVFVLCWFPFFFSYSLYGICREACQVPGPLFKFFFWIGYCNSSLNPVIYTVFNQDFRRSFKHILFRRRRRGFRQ
Put plainly: Binding affinity of compound towards Alpha-2C adrenergic receptor was determined.

In test [6] the target is Glutamate NMDA receptor. Put plainly: Binding affinity to NMDA glycine co-agonist site with [3H]-MDL- 105,519 as radioligand in rat brain membrane. The format is cell membranes.
For test [7], the target named is 5-hydroxytryptamine receptor 7 (Rattus norvegicus, UniProt P32305). Put plainly: Binding affinity of compound towards serotonin 5-hydroxytryptamine 7 receptor was determined.
5-hydroxytryptamine receptor 7, sequence (P32305 whole entry): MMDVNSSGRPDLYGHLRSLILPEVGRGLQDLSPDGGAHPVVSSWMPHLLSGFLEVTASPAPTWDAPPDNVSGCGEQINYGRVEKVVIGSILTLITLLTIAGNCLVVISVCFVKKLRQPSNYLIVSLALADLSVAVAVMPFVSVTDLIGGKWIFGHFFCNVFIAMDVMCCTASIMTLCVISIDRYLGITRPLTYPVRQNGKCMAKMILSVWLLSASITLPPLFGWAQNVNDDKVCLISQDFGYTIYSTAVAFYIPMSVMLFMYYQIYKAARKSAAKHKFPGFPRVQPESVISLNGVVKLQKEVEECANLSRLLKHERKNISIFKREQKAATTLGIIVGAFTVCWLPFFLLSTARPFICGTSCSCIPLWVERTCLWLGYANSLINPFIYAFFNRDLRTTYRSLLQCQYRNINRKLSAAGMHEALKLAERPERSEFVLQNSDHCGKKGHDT
Test [8] is filed under the species Rattus norvegicus. Nature of the test: Inhibition of [3H]- noradrenaline uptake in rat brain. The format is functional, organism-based.
In test [9] the target is T5, D(4) dopamine receptor (Rattus norvegicus, UniProt P30729).
T5 sequence (P30729 whole entry): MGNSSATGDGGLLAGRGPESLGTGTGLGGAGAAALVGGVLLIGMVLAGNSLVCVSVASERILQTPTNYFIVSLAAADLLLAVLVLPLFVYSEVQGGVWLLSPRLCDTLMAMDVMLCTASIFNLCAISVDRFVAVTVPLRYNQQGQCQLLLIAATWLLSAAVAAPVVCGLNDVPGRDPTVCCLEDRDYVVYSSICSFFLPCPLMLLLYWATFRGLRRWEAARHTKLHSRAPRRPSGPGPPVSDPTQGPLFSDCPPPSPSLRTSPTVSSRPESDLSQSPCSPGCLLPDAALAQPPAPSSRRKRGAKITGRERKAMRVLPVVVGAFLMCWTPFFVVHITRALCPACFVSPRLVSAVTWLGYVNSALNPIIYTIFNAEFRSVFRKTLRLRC
Put plainly: Binding affinity of compound towards Dopamine receptor D4 was determined.

Test [10] addresses 5-hydroxytryptamine receptor 2A (Rattus norvegicus, UniProt P14842). Nature of the test: Binding affinity of compound towards serotonin 5-hydroxytryptamine 2A receptor was determined.
In test [11] the target is T6, 5-hydroxytryptamine receptor 1A (Rattus norvegicus, UniProt P19327).
T6 sequence (P19327 whole entry): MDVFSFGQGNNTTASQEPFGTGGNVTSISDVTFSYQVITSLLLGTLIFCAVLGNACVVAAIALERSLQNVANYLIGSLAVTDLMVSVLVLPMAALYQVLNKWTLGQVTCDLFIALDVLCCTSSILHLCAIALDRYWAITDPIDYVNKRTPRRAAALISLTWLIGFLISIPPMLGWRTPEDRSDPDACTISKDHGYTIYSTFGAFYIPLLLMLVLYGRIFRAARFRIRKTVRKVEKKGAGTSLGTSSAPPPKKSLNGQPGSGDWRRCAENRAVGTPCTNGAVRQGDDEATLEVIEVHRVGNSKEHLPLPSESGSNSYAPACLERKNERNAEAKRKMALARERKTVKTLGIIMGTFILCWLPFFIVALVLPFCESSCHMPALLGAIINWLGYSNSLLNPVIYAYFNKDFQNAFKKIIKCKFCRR
Nature of the test: Binding affinity of compound towards 5-hydroxytryptamine 1A receptor was determined.

Test [12] addresses D(2) dopamine receptor (Rattus norvegicus, UniProt P61169). Nature of the test: Binding affinity of compound towards Dopamine receptor D2S was determined.
Test [13] is filed under the species Rattus norvegicus. Put plainly: Inhibition of [3H]- dopamine uptake in rat brain. Format: functional, organism-based.
Test [14] concerns the target T7, Alpha-1B adrenergic receptor (Homo sapiens, UniProt P35368).
T7 sequence (P35368 whole entry): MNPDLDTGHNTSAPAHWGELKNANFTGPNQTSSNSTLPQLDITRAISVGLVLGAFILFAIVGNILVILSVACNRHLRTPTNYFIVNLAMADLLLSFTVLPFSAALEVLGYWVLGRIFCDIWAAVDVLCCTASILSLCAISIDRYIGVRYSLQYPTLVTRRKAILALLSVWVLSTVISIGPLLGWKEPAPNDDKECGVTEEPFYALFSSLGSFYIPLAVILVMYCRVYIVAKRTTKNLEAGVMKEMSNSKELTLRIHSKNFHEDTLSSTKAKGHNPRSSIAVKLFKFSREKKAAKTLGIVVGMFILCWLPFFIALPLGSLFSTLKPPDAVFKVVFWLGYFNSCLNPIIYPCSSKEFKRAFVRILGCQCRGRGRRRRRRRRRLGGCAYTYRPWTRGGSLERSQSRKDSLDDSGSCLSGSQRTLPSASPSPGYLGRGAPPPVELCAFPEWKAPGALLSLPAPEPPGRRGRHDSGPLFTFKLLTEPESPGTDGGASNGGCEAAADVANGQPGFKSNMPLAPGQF
Put plainly: The compound was tested for the binding affinity towards Alpha-1B adrenergic receptor.

For test [15], the target named is 5-hydroxytryptamine receptor 6 (Rattus norvegicus, UniProt P31388). Put plainly: Binding affinity of compound towards serotonin 5-hydroxytryptamine 6 receptor was determined.
5-hydroxytryptamine receptor 6, sequence (P31388 whole entry): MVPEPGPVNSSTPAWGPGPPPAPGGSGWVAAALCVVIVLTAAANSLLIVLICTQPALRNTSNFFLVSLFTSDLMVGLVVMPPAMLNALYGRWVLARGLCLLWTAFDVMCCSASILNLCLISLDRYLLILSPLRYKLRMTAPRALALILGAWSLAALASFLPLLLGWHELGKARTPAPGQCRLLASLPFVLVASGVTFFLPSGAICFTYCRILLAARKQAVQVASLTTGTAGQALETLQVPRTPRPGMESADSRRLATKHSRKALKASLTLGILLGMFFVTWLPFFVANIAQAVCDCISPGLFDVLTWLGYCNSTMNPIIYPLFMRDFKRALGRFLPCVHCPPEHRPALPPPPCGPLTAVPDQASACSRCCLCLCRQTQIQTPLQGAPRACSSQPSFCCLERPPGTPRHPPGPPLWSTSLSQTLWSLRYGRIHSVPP
Test [16] has as its target Beta-1 adrenergic receptor (Homo sapiens, UniProt P08588). Nature of the test: Binding affinity of compound towards Beta-1 adrenergic receptor was determined.
The species named for test [17] is Rattus norvegicus. Nature of the test: Inhibition of [3H]- serotonin uptake in rat brain. Format: functional, organism-based.
The target in test [18] is Beta-2 adrenergic receptor (Homo sapiens, UniProt P07550). Put plainly: Binding affinity of compound towards Beta-2 adrenergic receptor was determined.
Beta-2 adrenergic receptor, sequence (P07550 whole entry): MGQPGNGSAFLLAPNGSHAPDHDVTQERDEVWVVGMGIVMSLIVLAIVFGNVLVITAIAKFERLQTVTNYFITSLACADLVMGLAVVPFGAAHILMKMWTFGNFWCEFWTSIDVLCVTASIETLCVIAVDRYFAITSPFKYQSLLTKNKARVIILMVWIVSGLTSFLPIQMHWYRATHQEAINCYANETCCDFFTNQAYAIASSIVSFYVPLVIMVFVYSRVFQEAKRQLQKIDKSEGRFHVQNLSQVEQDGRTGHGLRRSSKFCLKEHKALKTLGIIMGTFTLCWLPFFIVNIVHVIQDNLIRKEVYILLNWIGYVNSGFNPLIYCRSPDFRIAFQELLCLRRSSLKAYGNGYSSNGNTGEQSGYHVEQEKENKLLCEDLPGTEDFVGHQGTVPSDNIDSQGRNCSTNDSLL

Molecules are shown by their SMILES.

5-hydroxytryptamine receptor 2A, sequence (P14842 whole entry): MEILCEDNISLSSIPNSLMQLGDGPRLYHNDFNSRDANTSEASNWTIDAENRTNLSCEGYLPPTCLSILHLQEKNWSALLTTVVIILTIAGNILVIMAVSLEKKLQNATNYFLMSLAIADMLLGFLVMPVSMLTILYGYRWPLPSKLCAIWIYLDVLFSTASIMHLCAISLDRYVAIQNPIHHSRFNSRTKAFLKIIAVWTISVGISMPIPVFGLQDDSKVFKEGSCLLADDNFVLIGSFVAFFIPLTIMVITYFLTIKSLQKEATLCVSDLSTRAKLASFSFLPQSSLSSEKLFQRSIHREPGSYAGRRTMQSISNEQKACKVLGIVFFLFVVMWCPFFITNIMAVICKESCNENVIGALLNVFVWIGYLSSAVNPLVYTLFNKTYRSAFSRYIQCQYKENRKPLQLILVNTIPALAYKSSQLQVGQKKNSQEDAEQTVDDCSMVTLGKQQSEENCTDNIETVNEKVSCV
D(2) dopamine receptor, sequence (P61169 whole entry): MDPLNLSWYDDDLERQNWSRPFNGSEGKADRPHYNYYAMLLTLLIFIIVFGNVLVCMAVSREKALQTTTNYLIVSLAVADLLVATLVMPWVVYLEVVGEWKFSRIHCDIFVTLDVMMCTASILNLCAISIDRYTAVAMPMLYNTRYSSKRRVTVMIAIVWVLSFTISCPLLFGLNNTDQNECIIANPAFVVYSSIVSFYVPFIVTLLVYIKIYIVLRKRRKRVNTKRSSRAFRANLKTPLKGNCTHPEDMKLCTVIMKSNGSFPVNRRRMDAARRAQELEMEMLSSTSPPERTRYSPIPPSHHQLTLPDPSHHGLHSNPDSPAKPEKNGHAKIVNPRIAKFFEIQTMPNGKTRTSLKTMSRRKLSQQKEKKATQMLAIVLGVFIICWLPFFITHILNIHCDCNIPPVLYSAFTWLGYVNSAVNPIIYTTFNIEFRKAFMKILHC
Beta-1 adrenergic receptor, sequence (P08588 whole entry): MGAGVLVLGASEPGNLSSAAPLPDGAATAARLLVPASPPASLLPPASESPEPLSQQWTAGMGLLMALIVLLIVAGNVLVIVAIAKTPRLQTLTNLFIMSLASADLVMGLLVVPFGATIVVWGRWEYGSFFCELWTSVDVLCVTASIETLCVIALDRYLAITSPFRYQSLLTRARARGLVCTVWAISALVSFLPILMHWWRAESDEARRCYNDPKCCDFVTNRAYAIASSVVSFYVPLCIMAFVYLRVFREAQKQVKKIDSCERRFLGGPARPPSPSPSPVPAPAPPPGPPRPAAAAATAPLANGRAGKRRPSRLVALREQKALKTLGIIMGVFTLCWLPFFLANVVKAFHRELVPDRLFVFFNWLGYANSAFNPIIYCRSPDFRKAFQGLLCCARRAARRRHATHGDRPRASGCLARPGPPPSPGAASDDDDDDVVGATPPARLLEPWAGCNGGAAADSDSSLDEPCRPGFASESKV

As usually defined, the IC50 is the concentration that inhibits the measured activity by half. Read a high IC50 as weaker potency in that assay. Take `CN(CCC(=O)O)CCC(Oc1ccc(C(F)(F)F)cc1)c1ccccc1` (stereo not given): half-maximal inhibition in [1] (IC50) required 31.6 µM.

`CN(CCC(Oc1ccc(C(F)(F)F)cc1)c1ccc(F)cc1)CC(=O)O` (stereo not given): in [1], half-maximal inhibition (IC50) was put at 0.251 µM.

In turn, `CN(CC[C@H](Oc1ccc(-c2ccccc2)cc1)c1ccccc1)CC(=O)O` gave a half-maximal inhibitory concentration (IC50) in [1] of 0.977 µM.

In test [1], `CN(CC[C@H](Oc1ccc(C(F)(F)F)cc1)c1ccccc1)CC(=O)O` had a 50% inhibitory concentration (IC50) of 2.63 µM.

`CN(CCC(Oc1ccc(Cl)cc1)c1ccccc1)CC(=O)O` (stereo not given): in [1], 1.26 µM corresponded to half-maximal inhibition (IC50).

In test [1], `CN(CC[C@@H](Oc1ccc(-c2ccccc2)cc1)c1ccccc1)CC(=O)O` had an IC50 of 0.151 µM.

In test [1], `CN(CCC(Cc1ccc(C(F)(F)F)cc1)c1ccccc1)CC(=O)O` (stereo not given) had a concentration for half-maximal inhibition (IC50) of 1 µM.

`CN(CCC(Oc1ccc(C(F)(F)F)cc1)c1ccc(Cl)cc1)CC(=O)O` (stereo not given) showed a half-inhibitory concentration (IC50) in test [1] of 0.1 µM.

In test [1], `CN(CCCC(=O)O)CCC(Oc1ccc(C(F)(F)F)cc1)c1ccccc1` (stereo not given) showed an IC50 of 100 µM.

As for `COc1ccc(OC(CCN(C)CC(=O)O)c2ccccc2)cc1` (stereo not given), the IC50 in [1] is 3.98 µM.

Take `CN(CCC(Oc1ccc(Cl)c(C(F)(F)F)c1)c1ccccc1)CC(=O)O` (stereo not given): in [1], inhibition was half-maximal at 0.398 µM (IC50).

In test [1], `CN(CC[C@H](Oc1ccc(C(C)(C)C)cc1)c1ccccc1)CC(=O)O` had an IC50 of 11.7 µM.

As for `CN(CCC(Oc1ccc(C(F)(F)F)cc1)c1ccccc1)CC(=O)O` (stereo not given), inhibition in test [1] was half-maximal at 0.316 µM (IC50).

Broadly, the Ki is the equilibrium dissociation constant of an inhibitor or competing ligand from its target. Read a low Ki as higher affinity. On to `CN(CC[C@@H](Oc1ccc(C(F)(F)F)cc1)c1ccccc1)CC(=O)[O-].[Li+]`, for which the half-inhibitory concentration (IC50) was 0.126 µM in [1]; > 100 µM in test [4]; > 100 µM in test [8]; > 100 µM in test [13]; 50.1 µM in test [17]. Moreover, the Ki in test [2], in test [3], in test [5], in [7], in test [9] and in [10] was > 10 µM each time. Also, the inhibition constant Ki in [11], in [12], in test [14], in test [15], in test [16] and in test [18] was > 10 µM throughout. Moreover, the Log Ki in [6] is > -4.

Compound `CN(CCC(Oc1ccccc1Cl)c1ccccc1)CC(=O)O` (stereo not given) showed an IC50 in test [1] of 12.6 µM.

As to `COc1ccccc1OC(CCN(C)CC(=O)O)c1ccccc1` (stereo not given), the concentration for half-maximal inhibition (IC50) in test [1] is 20 µM.

`CN(CCC(Oc1ccc(Cl)c(Cl)c1)c1ccccc1)CC(=O)O` (stereo not given) had an IC50 in [1] of 0.501 µM.

Consider `CN(CCC(Oc1cccc(C(F)(F)F)c1)c1ccccc1)CC(=O)O` (stereo not given), for which the IC50 in test [1] was 2.51 µM.

For `Cc1ccc(OC(CCN(C)CC(=O)O)c2ccccc2)cc1` (stereo not given), in test [1], half-maximal inhibition (IC50) required 2.51 µM.

In the case of `CN(CC[C@@H](Oc1ccc(C(C)(C)C)cc1)c1ccccc1)CC(=O)O`, the IC50 in [1] is 0.447 µM.

`COc1ccc(C(CCN(C)CC(=O)O)Oc2ccc(C(F)(F)F)cc2)cc1` (stereo not given) gave an IC50 in test [1] of 0.501 µM.

The compound `CN(CCC(Oc1ccc(S(C)(=O)=O)cc1)c1ccccc1)CC(=O)O` (stereo not given) showed an IC50 in test [1] of 100 µM.

`CCN(CCC(Oc1ccc(C(F)(F)F)cc1)c1ccccc1)CC(=O)O` (stereo not given) gave an IC50 in test [1] of 5.01 µM.
